Source: ChEMBL document CHEMBL1649076, “Discovery of 5-chloro-N2-[(1S)-1-(5-fluoropyrimidin-2-yl)ethyl]-N4-(5-methyl-1H-pyrazol-3-yl)pyrimidine-2,4-diamine (AZD1480) as a novel inhibitor of the Jak/Stat pathway” (J Med Chem, 2011)

What was measured:
[1] = Octanol-water partition coefficient, log D of the compound at pH 7.4 by shake flask method; type: physicochemical
[2] = Growth inhibition of mouse BA/F3 cells expressing Tel-JAK2 kinase after 48 hrs by MTS assay; type: functional; conditions: BaF3, 48 h
[3] = target: T1, Tyrosine-protein kinase JAK3 (Homo sapiens, UniProt P52333); assay: Inhibition of JAK3 using 5 mM of ATP
T1 sequence (P52333 whole entry): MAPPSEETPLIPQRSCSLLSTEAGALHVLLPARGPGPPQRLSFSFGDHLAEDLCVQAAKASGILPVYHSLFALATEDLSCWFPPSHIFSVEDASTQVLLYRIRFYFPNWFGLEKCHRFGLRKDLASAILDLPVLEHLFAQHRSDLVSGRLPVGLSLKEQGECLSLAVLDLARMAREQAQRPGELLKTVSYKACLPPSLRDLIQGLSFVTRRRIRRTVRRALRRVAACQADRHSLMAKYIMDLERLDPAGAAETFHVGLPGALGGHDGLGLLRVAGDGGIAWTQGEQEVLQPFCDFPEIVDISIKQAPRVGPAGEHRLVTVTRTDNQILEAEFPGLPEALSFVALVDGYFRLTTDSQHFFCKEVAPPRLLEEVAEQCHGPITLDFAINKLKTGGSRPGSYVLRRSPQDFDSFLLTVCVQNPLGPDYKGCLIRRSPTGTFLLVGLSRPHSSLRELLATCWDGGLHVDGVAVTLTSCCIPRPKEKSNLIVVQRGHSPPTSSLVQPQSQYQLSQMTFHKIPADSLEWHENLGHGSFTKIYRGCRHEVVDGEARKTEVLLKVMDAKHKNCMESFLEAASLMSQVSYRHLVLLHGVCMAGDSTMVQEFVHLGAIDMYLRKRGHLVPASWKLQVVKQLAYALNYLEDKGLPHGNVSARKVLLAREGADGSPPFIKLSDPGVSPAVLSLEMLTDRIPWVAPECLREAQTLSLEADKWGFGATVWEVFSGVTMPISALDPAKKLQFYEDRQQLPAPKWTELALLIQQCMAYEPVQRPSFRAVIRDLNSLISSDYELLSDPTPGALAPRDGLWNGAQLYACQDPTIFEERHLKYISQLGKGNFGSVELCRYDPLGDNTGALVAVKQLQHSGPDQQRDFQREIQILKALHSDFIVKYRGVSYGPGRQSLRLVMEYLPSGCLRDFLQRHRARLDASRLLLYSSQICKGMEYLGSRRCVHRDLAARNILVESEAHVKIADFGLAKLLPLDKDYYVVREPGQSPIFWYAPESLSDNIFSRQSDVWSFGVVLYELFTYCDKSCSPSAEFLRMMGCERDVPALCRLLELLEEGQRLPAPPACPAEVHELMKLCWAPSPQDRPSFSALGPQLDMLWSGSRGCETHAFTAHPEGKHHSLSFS

Liver microsomes = assay: Intrinsic clearance in rat liver microsomes assessed per mg of protein at 2 uM by LCMS/MS analysis; type: ADME, Microsome
[4] = Aqueous equilibrium solubility of the compound at pH 7.4 by HPLC-UV analysis; type: physicochemical
[5] = Half life in Han Wistar rat at 10 mg/kg, po and 3 mg/kg, iv; type: ADME, organism-based; conditions: in vivo
[6] = Oral bioavailability in Han Wistar rat at 10 mg/kg; type: ADME, organism-based; conditions: in vivo
[7] = Observed clearance in Han Wistar rat at 10 mg/kg, po and 3 mg/kg, iv; type: ADME, organism-based; conditions: in vivo
[8] = Volume of distribution at steady state in Han Wistar rat at 10 mg/kg, po and 3 mg/kg, iv; type: ADME, organism-based; conditions: in vivo, read-out: Vdss
[9] = target: T2, Tyrosine-protein kinase JAK2 (Homo sapiens, UniProt O60674); assay: Inhibition of JAK2 using Km ATP concentration
T2 sequence (O60674 whole entry): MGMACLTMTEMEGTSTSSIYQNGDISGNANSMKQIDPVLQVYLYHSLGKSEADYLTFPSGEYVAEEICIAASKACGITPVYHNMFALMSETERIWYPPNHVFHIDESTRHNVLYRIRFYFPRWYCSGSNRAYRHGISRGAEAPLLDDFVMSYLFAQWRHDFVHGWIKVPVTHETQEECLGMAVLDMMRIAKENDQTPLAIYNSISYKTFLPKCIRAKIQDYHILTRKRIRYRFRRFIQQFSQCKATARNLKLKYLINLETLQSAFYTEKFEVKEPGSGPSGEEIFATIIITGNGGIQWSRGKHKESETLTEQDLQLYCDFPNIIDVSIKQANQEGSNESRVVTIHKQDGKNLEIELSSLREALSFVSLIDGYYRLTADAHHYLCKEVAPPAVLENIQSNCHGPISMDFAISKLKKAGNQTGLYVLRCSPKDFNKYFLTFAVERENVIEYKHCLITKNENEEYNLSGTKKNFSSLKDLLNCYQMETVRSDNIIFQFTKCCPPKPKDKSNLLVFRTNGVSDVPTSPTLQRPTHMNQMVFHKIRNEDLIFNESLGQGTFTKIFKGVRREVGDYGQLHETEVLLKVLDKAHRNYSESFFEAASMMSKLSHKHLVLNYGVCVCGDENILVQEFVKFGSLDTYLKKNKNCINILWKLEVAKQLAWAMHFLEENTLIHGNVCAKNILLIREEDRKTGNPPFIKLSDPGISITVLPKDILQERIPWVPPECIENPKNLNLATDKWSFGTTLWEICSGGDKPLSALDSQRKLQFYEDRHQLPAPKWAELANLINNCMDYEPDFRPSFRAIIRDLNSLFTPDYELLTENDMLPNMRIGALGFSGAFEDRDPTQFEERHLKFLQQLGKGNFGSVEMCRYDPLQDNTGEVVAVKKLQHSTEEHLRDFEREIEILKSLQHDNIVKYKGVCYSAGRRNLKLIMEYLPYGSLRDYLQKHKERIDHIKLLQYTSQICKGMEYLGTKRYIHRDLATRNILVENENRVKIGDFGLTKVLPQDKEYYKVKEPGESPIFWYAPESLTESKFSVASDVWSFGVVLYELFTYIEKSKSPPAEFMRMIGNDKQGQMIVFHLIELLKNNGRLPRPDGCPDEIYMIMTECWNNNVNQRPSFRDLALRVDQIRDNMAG

[10] = target: T2, Tyrosine-protein kinase JAK2; assay: Inhibition of JAK2 using 5 mM of ATP
[11] = Inhibition of Stat5 phosphorylation in mouse Ba/F3 cells expressing EPOR; conditions: BaF3
[12] = AUC (0 to 24 hrs) in Han Wistar rat at 10 mg/kg, po; type: ADME, organism-based; set-up: time < 24 hr, dose 10 mg/kg, route oral; conditions: plasma

SMILES	logD [1]	GI50 [2]	IC50 [3]	clearance (Liver microsomes)	solubility thermodynamic [4]	half-life [5]	bioavailability [6]	clearance [7]	Vd [8]	IC50 [9]	IC50 [10]	EC50 [11]	AUC(0-t) at 24 h [12]
Cc1cc(Nc2nc(N[C@@H](C)c3ncc(F)cn3)ncc2F)n[nH]1	< 2.6	230 nM	5250 nM	10 µL/min/mg	> 460 µM	0.85 h	100%	12 mL/min/kg	0.8 L/kg	–	–	–	–
C[C@H](Nc1ncc(F)c(Nc2cc(C3CC3)[nH]n2)n1)c1ncc(F)cn1	< 2.6	250 nM	–	–	> 460 µM	–	–	–	–	3 nM	–	–	–
COc1cc(Nc2nc(N[C@@H](C)c3ncc(F)cn3)ncc2Cl)n[nH]1	< 2.6	410 nM	> 30000 nM	–	> 460 µM	–	–	–	–	3 nM	108 nM	–	–
C[C@H](Nc1ncc(Cl)c(Nc2cc(C3CC3)[nH]n2)n1)c1ncc(F)cn1	< 2.6	150 nM	–	–	> 460 µM	–	–	–	–	< 3 nM	–	–	–
Cc1cc(Nc2nc(N[C@@H](C)c3ncc(F)cn3)ncc2C)n[nH]1	< 2.6	96 nM	8350 nM	25 µL/min/mg	> 460 µM	1.9 h	100%	18 mL/min/kg	2.4 L/kg	< 3 nM	4 nM	–	–
Cc1cc(Nc2nc(O[C@@H](C)c3ncc(F)cn3)ncc2Cl)n[nH]1	< 2.6	170 nM	12700 nM	–	> 460 µM	–	–	–	–	–	–	39000 nM	–
Cc1cc(Nc2nc(O[C@H](C)c3ncc(F)cn3)ncc2Cl)n[nH]1	< 2.6	> 10000 nM	> 30000 nM	–	> 460 µM	–	–	–	–	–	–	–	–
COc1cc(Nc2nc(N[C@@H](C)c3ncc(F)cn3)ncc2Br)n[nH]1	< 2.6	590 nM	> 30000 nM	–	> 460 µM	–	–	–	–	4 nM	108 nM	–	–
Cc1cc(Nc2nc(N[C@@H](C)c3ncc(F)cn3)ncc2Br)n[nH]1	< 2.6	89 nM	4590 nM	–	> 460 µM	–	–	–	–	< 3 nM	10 nM	–	–
C[C@H](Nc1ncc(Cl)c(Nc2cc(N(C)C)[nH]n2)n1)c1ncc(F)cn1	< 2.6	1200 nM	> 30000 nM	–	> 460 µM	–	–	–	–	9 nM	488 nM	–	–
C[C@H](Nc1ncc(F)c(Nc2cc(N(C)C)[nH]n2)n1)c1ncc(F)cn1	< 2.6	2200 nM	> 30000 nM	–	> 460 µM	–	–	–	–	16 nM	815 nM	–	–
Cc1cc(Nc2cc(N3CCOCC3)nc(N[C@@H](C)c3ncc(F)cn3)n2)[nH]n1	< 2.6	50 nM	30 nM	10 µL/min/mg	> 460 µM	1.1 h	64%	18 mL/min/kg	1.4 L/kg	< 3 nM	< 3 nM	–	–
Cc1cc(Nc2nc(N[C@@H](C)c3ncc(F)cn3)nc(N3CCOCC3)c2F)n[nH]1	< 2.6	13 nM	> 30000 nM	–	> 460 µM	1.9 h	34%	14 mL/min/kg	1.7 L/kg	< 3 nM	< 3 nM	–	–
Cc1cc(Nc2nc(N[C@@H](C)c3ncc(F)cn3)nc(N3CCOCC3)c2Cl)n[nH]1	< 2.6	17 nM	11800 nM	16 µL/min/mg	> 460 µM	0.36 h	20%	221 mL/min/kg	4.6 L/kg	< 3 nM	9 nM	–	–
COc1cc(Nc2cc(N3CCOCC3)nc(N[C@@H](C)c3ncc(F)cn3)n2)n[nH]1	< 2.6	73 nM	200 nM	–	> 460 µM	–	–	–	–	10 nM	30 nM	–	–
COc1cc(Nc2nc(N[C@@H](C)c3ncc(F)cn3)nc(N3CCOCC3)c2F)n[nH]1	< 2.6	240 nM	30500 nM	–	> 460 µM	–	–	–	–	4 nM	8 nM	–	–
COc1cc(Nc2nc(N[C@@H](C)c3ncc(F)cn3)nc(N3CCOCC3)c2Cl)n[nH]1	< 2.6	1300 nM	2960 nM	–	> 460 µM	–	–	–	–	4 nM	90 nM	–	–
Cc1cc(Nc2nc(N[C@H](C)c3ncc(F)cn3)ncc2Cl)n[nH]1	< 2.6	11000 nM	–	–	> 460 µM	2.9 h	–	19 mL/min/kg	3 L/kg	–	–	–	33.5 µM·h
